Laboratory results taken from patent US20220401514A1, “ANTIMICROBIAL, BACTERIOPHAGE-DERIVED POLYPEPTIDES AND THEIR USE AGAINST GRAM-NEGATIVE AND ACID-FAST BACTERIA” (CONTRAFECT CORPORATION, priority 2019, published 2022).
In brackets after ≈: the same amount, converted by molar mass. Read-outs that look alike come from different tables or passages of the source.

Tests used:
Pseudomonas aeruginosa = test: microbe, parasite or virus in culture; type: cell-based; conditions: for MIC50 / MIC100 / MIC Range: P. aeruginosa isolates (n per peptide in table)
P. aeruginosa (CFS 1292) = test: microbe, parasite or virus in culture; type: cell-based, Pseudomonas aeruginosa; conditions: Pseudomonas aeruginosa
M. avium = test: 45 hr MIC against M. avium (NTM); type: cell-based, Mycobacterium avium; conditions: M. avium Chester ATCC 700898
Acinetobacter baumannii = test: microbe, parasite or virus in culture; type: cell-based; conditions: for MIC50 / MIC100 / MIC Range: A. baumannii isolates (n per peptide in table)
M. fortuitum = test: 45 hr MIC against M. fortuitum (NTM); type: cell-based, Mycobacterium fortuitum; conditions: M. fortuitum subsp. Fortuitum da Costa Cruz. ATCC 6841
Escherichia coli = test: microbe, parasite or virus in culture; type: cell-based; conditions: for MIC50 / MIC100 / MIC Range: E. coli isolates (n per peptide in table)
Method in brief: (§1)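 CAA + human serum as test medium; MIC read as lowest peptide concentration inhibiting growth.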

Enterobacter cloacae = test: microbe, parasite or virus in culture; type: cell-based; conditions: for MIC50 / MIC100 / MIC Range: E. cloacae isolates (n per peptide in table)
Method in brief: as §1

M. intracellulare = test: 45 hr MIC against M. intracellulare (NTM); type: cell-based, Mycobacterium intracellulare; conditions: M. intracellulare (Cuttino and McCabe) Runyon ATCC 13950
[1] = tested on: Acinetobacter baumannii strain 30; test: Checkerboard assay (FICI) with antibiotics, A. baumannii; type: cell-based; conditions: checkerboard
M. scrofulaceum = test: 45 hr MIC against M. scrofulaceum (NTM); type: cell-based, Mycobacterium scrofulaceum; conditions: M. scrofulaceum Prissick and Masson ATCC 19981
[2] = tested on: P. aeruginosa strain CFS-1292; test: MIC at pH 6, pH 7 and pH 8; type: cell-based, Pseudomonas aeruginosa
Experimental: The Chp peptides were further evaluated at varying pH levels. The MIC values were determined at pH 6, pH 7, and pH 8 for 18 different Chp peptides against P. aeruginosa strain CFS-1292. […]

[3] = tested on: P. aeruginosa strain CFS-1292; test: MIC in presence of mouse, rat, rabbit and human serum ([…] each); type: cell-based, Pseudomonas aeruginosa; conditions: P. aeruginosa CFS-1292
Experimental: The activity of several Chp peptides against P. aeruginosa strain CFS-1292 in animal serum was evaluated. […] Rat, mouse, and rabbit serum were all obtained from pooled gender samples.

[4] = P. aeruginosa 453 (Human clinical isolate, HSS), RSC 1292, CAA without human serum
[5] = P. aeruginosa (ATCC 14213, human hip wound), RSC 1111, CAA without human serum
[6] = P. aeruginosa (ATCC 15152, abscess in middle ear), RSC 1110, CAA without human serum
[7] = P. aeruginosa (ATCC 15692, infected wound), RSC 489, CAA without human serum
[8] = P. aeruginosa (ATCC 15692, infected wound), RSC 1115, CAA without human serum
[9] = P. aeruginosa (ATCC 17646, human liver abscess), RSC 1109, CAA without human serum
[10] = P. aeruginosa (ATCC 19142, tracheobronchial secretion), RSC 1108, CAA without human serum
[11] = P. aeruginosa (ATCC 25102, bacteriophage host), RSC 1114, CAA without human serum
[12] = P. aeruginosa (ATCC 27853, MIC control strain), RSC 815, CAA without human serum
[13] = P. aeruginosa (ATCC BAA-27, lab strain), RSC 1113, CAA without human serum
[14] = P. aeruginosa (PAO1, alternate source, HER1018), RSC 490, CAA without human serum
[15] = Acinetobacter baumannii (clinical isolate HSS), RSC 30, CAA without human serum
[16] = Acinetobacter baumannii (clinical isolate HSS), RSC 32, CAA without human serum
[17] = Acinetobacter baumannii ATCC BAA 747, CAA supplemented with human serum
[18] = E. coli (ATCC 25922, MIC control strain), RSC 813, CAA without human serum
[19] = E. coli (HM346, colon, Crohn's disease), RSC 1212, CAA without human serum
[20] = Escherichia coli ATCC 25922, CAA supplemented with human serum
[21] = Enterobacter cloacae (ATCC 13047, MIC control strain), RSC 1240, CAA without human serum
[22] = Enterobacter cloacae ATCC 13047, CAA supplemented with human serum

Question: What does the source list for `NC[C@H]1O[C@H](O[C@H]2[C@H](O)[C@@H](O[C@H]3O[C@H](CO)[C@@H](O)[C@H](N)[C@H]3O)[C@H](N)C[C@@H]2N)[C@H](N)C[C@@H]1O` [tobramycin, reference compound]?
Answer: MIC (Pseudomonas aeruginosa; Pseudomonas aeruginosa, ATCC27853, P. aeruginosa (ATCC 27853), control agents of Table 8, read-out: MIC (in brackets beside MBEC)): < 0.5 mg/L; MIC (P. aeruginosa (CFS 1292); read-out: MIC Center): 0.5 mg/L (≈ 1.07 µM); MIC (P. aeruginosa (CFS 1292); read-out: MIC Periphery): 0.5 mg/L (≈ 1.07 µM); MIC (M. avium; Mycobacterium avium, ATCC700898, 45 h, read-out: 45 hr MIC): 0.125 mg/L (≈ 0.267 µM); MIC (Acinetobacter baumannii; Acinetobacter baumannii, ATCCBAA747, A. baumanni (ATCC BAA-747), control agents of Table 8, read-out: MIC (in brackets beside MBEC)): < 0.5 mg/L; MIC (M. fortuitum; Mycolicibacterium fortuitum, ATCC6841, 45 h, read-out: 45 hr MIC): 4 mg/L (≈ 8.56 µM); MIC (Escherichia coli; Escherichia coli, ATCC25922, E. coli (ATCC 25922), control agents of Table 8, read-out: MIC (in brackets beside MBEC)): < 0.5 mg/L; MIC (Escherichia coli; Escherichia coli, ATCC35329, E. coli (ATCC 35329), control agents of Table 8, read-out: MIC (in brackets beside MBEC)): < 0.5 mg/L; MIC (Escherichia coli; Escherichia coli, E. coli (EC2), control agents of Table 8, read-out: MIC (in brackets beside MBEC)): < 0.5 mg/L; MIC (Enterobacter cloacae; Enterobacter cloacae, CCUG63317, E. cloacae (CCUG 63317), control agents of Table 8, read-out: MIC (in brackets beside MBEC)): < 0.5 mg/L; MIC (M. intracellulare; Mycobacterium intracellulare, ATCC13950, 45 h, read-out: 45 hr MIC): 0.25 mg/L (≈ 0.535 µM); Antibiotic FIC ([1]; in combination with Chp2): 0.125; Antibiotic MIC ([1]; in combination with Chp2): 0.01562 mg/L; Antibiotic FIC ([1]; in combination with Chp2-M1): 0.25; Antibiotic MIC ([1]; in combination with Chp2-M1): 0.01562 mg/L; Antibiotic FIC ([1]; in combination with Chp4-M1): 0.5; Antibiotic FIC ([1]; in combination with Chp6-M1): 0.25; Antibiotic MIC ([1]; in combination with Chp6-M1): 0.01562 mg/L; Antibiotic FIC ([1]; in combination with Chp10-M1): 0.25; Antibiotic MIC ([1]; in combination with Chp10-M1): 0.01562 mg/L; Antibiotic FIC ([1]; in combination with Unp2-M1): 0.25; Antibiotic MIC ([1]; in combination with Unp2-M1): 0.01562 mg/L; MIC (M. scrofulaceum; Mycobacterium scrofulaceum, ATCC19981, 45 h, read-out: 45 hr MIC): 0.25 mg/L (≈ 0.535 µM)

Question: “MARRRYRLPRRRSRRLFSRTALRMHPRNRLRRIMRGGIRF [Chp6]” was tested. Which MIC (Pseudomonas aeruginosa; [4]) did it give?
Answer: 2 mg/L

Question: And the MIC (Pseudomonas aeruginosa; [5])?
Answer: 4 mg/L

Question: And the MIC (Pseudomonas aeruginosa; [6])?
Answer: 2 mg/L

Question: And the MIC (Pseudomonas aeruginosa; [7])?
Answer: 2 mg/L

Question: And the MIC (Pseudomonas aeruginosa; [8])?
Answer: 4 mg/L

Question: And the MIC (Pseudomonas aeruginosa; [9])?
Answer: 4 mg/L

Question: And the MIC (Pseudomonas aeruginosa; [10])?
Answer: 2 mg/L

Question: What about the MIC (Pseudomonas aeruginosa; [11]) of the same compound?
Answer: 2 mg/L

Question: And the MIC (Pseudomonas aeruginosa; [12])?
Answer: 1 mg/L

Question: What about the MIC (Pseudomonas aeruginosa; [13]) of the same compound?
Answer: 2 mg/L

Question: And the MIC (Pseudomonas aeruginosa; [14])?
Answer: 1 mg/L

Question: And the MIC50 (Pseudomonas aeruginosa)?
Answer: 1 mg/L

Question: And the MIC100 (Pseudomonas aeruginosa)?
Answer: 1 mg/L

Question: And the “MIC Range” value (Pseudomonas aeruginosa)?
Answer: 0.5 to 1 mg/L

Question: What about the “45 hr MIC” value (M. avium) of the same compound?
Answer: 1 mg/L

Question: And the MIC50 (Acinetobacter baumannii)?
Answer: 0.25 mg/L

Question: And the MIC100 (Acinetobacter baumannii)?
Answer: 0.5 mg/L

Question: And the “MIC Range” value (Acinetobacter baumannii)?
Answer: 0.125 to 1 mg/L

Question: And the MIC (Acinetobacter baumannii; [15])?
Answer: 2 mg/L

Question: What about the MIC (Acinetobacter baumannii; [16]) of the same compound?
Answer: 2 mg/L

Question: And the MIC (Acinetobacter baumannii; [17])?
Answer: 1 mg/L

Question: What about the “45 hr MIC” value (M. fortuitum) of the same compound?
Answer: 4 mg/L

Question: What about the MIC (Escherichia coli; [18]) of the same compound?
Answer: 2 mg/L

Question: What about the MIC (Escherichia coli; [19]) of the same compound?
Answer: 2 mg/L

Question: And the MIC50 (Escherichia coli)?
Answer: 0.5 mg/L

Question: And the MIC100 (Escherichia coli)?
Answer: 1 mg/L

Question: What about the “MIC Range” value (Escherichia coli) of the same compound?
Answer: 0.25 to 2 mg/L

Question: What about the MIC (Escherichia coli; [20]) of the same compound?
Answer: 1 mg/L

Question: And the MIC50 (Enterobacter cloacae)?
Answer: 0.5 mg/L

Question: What about the MIC100 (Enterobacter cloacae) of the same compound?
Answer: 1 mg/L

Question: What about the “MIC Range” value (Enterobacter cloacae) of the same compound?
Answer: 0.25 to 2 mg/L

Question: And the MIC (Enterobacter cloacae; [21])?
Answer: 4 mg/L

Question: What about the MIC (Enterobacter cloacae; [22]) of the same compound?
Answer: 2 mg/L

Question: And the “45 hr MIC” value (M. intracellulare)?
Answer: 0.5 mg/L

Question: And the MIC ([2]; CAA media (pH 7))?
Answer: 1 mg/L

Question: And the MIC ([2]; pH 6)?
Answer: 2 mg/L

Question: And the MIC ([2]; pH 7)?
Answer: 0.25 mg/L

Question: What about the MIC ([2]; pH 8) of the same compound?
Answer: 1 mg/L

Question: And the “MIC BALB/C Mouse Serum” value ([3]; BALB/C mouse serum […])?
Answer: 32 mg/L

Question: And the “MIC CAA” value ([3]; CAA)?
Answer: 1 mg/L

Question: And the “MIC New Zealand White Rabbit Serum” value ([3]; New Zealand White rabbit serum […])?
Answer: 4 mg/L

Question: And the “MIC Sprague Dawley Rat Serum” value ([3]; Sprague Dawley rat serum […])?
Answer: 4 mg/L

Question: And the “MIC Human Serum” value ([3]; human serum […])?
Answer: 1 mg/L

Question: And the “45 hr MIC” value (M. scrofulaceum)?
Answer: 2 mg/L

Question: Which results are given for “MVRRRRLRRRISRRIFRRTVARVGRRRRSFRGGIRF [Chp1]”?
Answer: MIC (Pseudomonas aeruginosa; [4]): 8 mg/L; MIC (Pseudomonas aeruginosa; [5]): 8 mg/L; MIC (Pseudomonas aeruginosa; [6]): 4 mg/L; MIC (Pseudomonas aeruginosa; [7]): 4 mg/L; MIC (Pseudomonas aeruginosa; [8]): 8 mg/L; MIC (Pseudomonas aeruginosa; [9]): 8 mg/L; MIC (Pseudomonas aeruginosa; [10]): 8 mg/L; MIC (Pseudomonas aeruginosa; [11]): 8 mg/L; MIC (Pseudomonas aeruginosa; [12]): 8 mg/L; MIC (Pseudomonas aeruginosa; [13]): 8 mg/L; MIC (Pseudomonas aeruginosa; [14]): 8 mg/L; MIC50 (Pseudomonas aeruginosa): 2 mg/L; MIC100 (Pseudomonas aeruginosa): 4 mg/L; MIC Range (Pseudomonas aeruginosa): 1 to 4 mg/L; 45 hr MIC (M. avium): 4 mg/L; MIC50 (Acinetobacter baumannii): 2 mg/L; MIC100 (Acinetobacter baumannii): 4 mg/L; MIC Range (Acinetobacter baumannii): 1 to 4 mg/L; MIC (Acinetobacter baumannii; [15]): 8 mg/L; MIC (Acinetobacter baumannii; [16]): 8 mg/L; MIC (Acinetobacter baumannii; [17]): 2 mg/L; 45 hr MIC (M. fortuitum): 16 mg/L; MIC (Escherichia coli; [18]): 8 mg/L; MIC (Escherichia coli; [19]): 8 mg/L; MIC50 (Escherichia coli): 2 mg/L; MIC100 (Escherichia coli): 4 mg/L; MIC Range (Escherichia coli): 1 to 4 mg/L; MIC (Escherichia coli; [20]): 2 mg/L; MIC50 (Enterobacter cloacae): 2 mg/L; MIC100 (Enterobacter cloacae): 4 mg/L; MIC Range (Enterobacter cloacae): 2 to 4 mg/L; MIC (Enterobacter cloacae; [21]): 8 mg/L; MIC (Enterobacter cloacae; [22]): 4 mg/L; 45 hr MIC (M. intracellulare): 4 mg/L; MIC ([2]; CAA media (pH 7)): 1 mg/L; MIC ([2]; pH 6): 0.5 mg/L; MIC ([2]; pH 7): 1 mg/L; MIC ([2]; pH 8): 1 mg/L; 45 hr MIC (M. scrofulaceum): 4 mg/L
